Patent US8895504B2, “Amylin derivatives” (priority 2008, dated 2014)
*1 amine or outer side, *2 acyl side, *3 side chain or, on linkers, in order; H or OH if unused. Where a SMILES comes first, the peptide text is derived from it. Bridges are numbered along the chain shown (N, C = ends). The star is where a group is joined. C20 diacid = O=C(O)CCCCCCCCCCCCCCCCCCC(=O)*; C18 diacid = O=C(O)CCCCCCCCCCCCCCCCC(=O)*; γGlu = O=C(O)[C@H](CCC(=O)[*:2])N[*:1]; AEEA = NCCOCCOCC(=O)O; GABA = NCCCC(=O)O

Molecular target: T1, Amylin 3(a) receptor (human calcitonin receptor (CTa) and RAMP-3) (Homo sapiens, UniProt O60896+P30988)
T1 construct: expressed in transfected cells; host or cells: BHK570 cells, stably transfected with a CRE-luciferase reporter
Experiment: Luciferase assay (III), BHK Amylin 3(a)//CRE-luc cells
Type: cell-based
Details: BHK cells with Amylin 3(a) receptor and CRE luciferase reporter, 4 hours incubation; read-out: Potency Luciferase
Source text: It has previously been published (Poyner D R et al 2002, Pharmacological Reviews 54(2) 233-246) that activation of Amylin receptors (coexpression of Calcitonin receptor and receptor activity modifying peptides RAMPs) by Amylin leads to an increase in the intracellular concentration of cAMP. Consequently, transcription is activated at promoters containing multiple copies of the cAMP response element (CRE). It is thus possible to measure Amylin activity by use of a CRE luciferase reporter gene introduced into BHK cells also expressing an Amylin receptor.
2. Construction of an Amylin 3(a)/CRE-luc Cell Line
A BHK570 cell line stably transfected with the human calcitonin receptor (CTa) and a CRE-responsive luciferase reportergene. The cell line was further transfected with RAMP-3, using standard methods. This turns the Calcitonin receptor into an Amylin 3(a) receptor. Methotrexate, Neomycin, and Hygromycin are selection markers for luciferase, the Calcitonin receptor, and RAMP-3, respectively.
3. Amylin Luciferase Assay
To perform activity assays, BHK Amylin 3(a)//CRE-luc cells were seeded in white 96 well culture plates at a density of about 20,000 cells/well. The cells were in 100 μl growth medium (DMEM with 10% FBS, 1% Pen/Strep, 1 mM Na-pyruvate, 250 nM Methotrexate, 500 μg/ml Neomycin, and 400 μg/ml Hygromycin). After incubation overnight at 37° C. and 5% CO2, the growth medium was replaced by 50 μl/well assay medium (DMEM (without phenol red), Glumamax™, 10% FBS, and 10 mM Hepes, pH 7,4). Further, 50 μl/well of standard or sample in assay buffer were added. After 4 hours incubation at 37° C. and 5% CO2, the assay medium with standard or sample were removed and replaced by 100 μl/well PBS. Further, 100 μl/well LucLite™ was added. The plates were sealed and incubated at room temperature for 30 minutes. Finally, luminescence was measured on a TopCounter (Packard) in SPC (single photon counting) mode.

T1 sequence (O60896 24-148): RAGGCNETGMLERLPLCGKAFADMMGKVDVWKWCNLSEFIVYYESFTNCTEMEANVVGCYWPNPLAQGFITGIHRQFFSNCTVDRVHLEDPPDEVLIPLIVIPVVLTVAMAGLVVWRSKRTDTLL
T1 sequence (P30988 25-474): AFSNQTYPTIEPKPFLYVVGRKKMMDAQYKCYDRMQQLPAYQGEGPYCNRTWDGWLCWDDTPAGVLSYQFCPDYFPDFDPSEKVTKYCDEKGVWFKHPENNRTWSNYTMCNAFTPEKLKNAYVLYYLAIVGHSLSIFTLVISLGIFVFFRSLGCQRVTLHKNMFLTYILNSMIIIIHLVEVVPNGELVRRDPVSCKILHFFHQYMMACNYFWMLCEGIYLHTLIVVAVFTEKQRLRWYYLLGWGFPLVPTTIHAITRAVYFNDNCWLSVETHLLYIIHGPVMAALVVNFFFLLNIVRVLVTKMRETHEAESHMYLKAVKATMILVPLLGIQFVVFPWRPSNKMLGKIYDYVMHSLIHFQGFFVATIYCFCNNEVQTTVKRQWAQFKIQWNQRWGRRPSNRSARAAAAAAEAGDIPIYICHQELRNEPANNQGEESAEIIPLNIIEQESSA

Row | SMILES | EC50 [nM]
1 | CC[C@H](C)[C@H](NC(=O)[C@@H]1CCCN1C(=O)CNC(=O)[C@H](Cc1ccccc1)NC(=O)[C@H](CC(N)=O)NC(=O)[C@H](CC(N)=O)NC(=O)[C@H](CO)NC(=O)[C@H](CO)NC(=O)[C@H](Cc1c[nH]cn1)NC(=O)[C@H](CCCNC(=N)N)NC(=O)[C@H](CC(C)C)NC(=O)[C@H](Cc1ccccc1)NC(=O)[C@H](CC(N)=O)NC(=O)[C@H](C)NC(=O)[C@H](CC(C)C)NC(=O)[C@H](CCCNC(=N)N)NC(=O)[C@H](CCC(N)=O)NC(=O)[C@@H](NC(=O)[C@H](C)NC(=O)[C@@H]1CSSC[C@H](NC(=O)[C@H](CCCNC(=N)N)NC(=O)[C@H](Cc2c[nH]cn2)NC(=O)[C@H](Cc2c[nH]cn2)NC(=O)[C@H](CCC(=O)O)NC(=O)CC[C@H](NC(=O)CCCCCCCCCCCCCCCCCCC(=O)O)C(=O)O)C(=O)N[C@@H](CC(N)=O)C(=O)N[C@@H]([C@@H](C)O)C(=O)N[C@@H](C)C(=O)N[C@@H]([C@@H](C)O)C(=O)N1)[C@@H](C)O)C(=O)N[C@@H](CC(C)C)C(=O)N1CCC[C@H]1C(=O)N1CCC[C@H]1C(=O)N[C@H](C(=O)N[C@@H](CC(N)=O)C(=O)N[C@H](C(=O)NCC(=O)N[C@@H](CO)C(=O)N[C@@H](CC(N)=O)C(=O)N[C@H](C(=O)N[C@@H](Cc1ccc(O)cc1)C(N)=O)[C@@H](C)O)C(C)C)[C@@H](C)O [Example 58, N-alpha-[(S)-4-Carboxy-4-(19-carboxynonadecanoylamino)butyryl]-Glu-His-His-[Arg1,Arg17]-pramlintide] ({C20 diacid-γGlu}-EHHRCNTATCATQRLANFLRHSSNNFGPILPPTNVGSNTY-NH2; disulfide 5-10) | 0.2
2 | CC[C@H](C)[C@H](NC(=O)[C@@H]1CCCN1C(=O)CNC(=O)[C@H](Cc1ccccc1)NC(=O)[C@H](CC(N)=O)NC(=O)[C@H](CCC(N)=O)NC(=O)[C@H](CO)NC(=O)[C@H](CO)NC(=O)[C@H](Cc1c[nH]cn1)NC(=O)[C@H](Cc1c[nH]cn1)NC(=O)[C@H](CC(C)C)NC(=O)[C@H](Cc1ccccc1)NC(=O)[C@H](CC(N)=O)NC(=O)[C@H](C)NC(=O)[C@H](CC(C)C)NC(=O)[C@H](CCCNC(=N)N)NC(=O)[C@H](CCC(N)=O)NC(=O)[C@@H](NC(=O)[C@H](C)NC(=O)[C@@H]1CSSC[C@H](NC(=O)[C@H](CCCNC(=N)N)NC(=O)[C@H](Cc2c[nH]cn2)NC(=O)[C@H](Cc2c[nH]cn2)NC(=O)[C@H](CCC(=O)O)NC(=O)CC[C@H](NC(=O)CCCCCCCCCCCCCCCCCCC(=O)O)C(=O)O)C(=O)N[C@@H](CC(N)=O)C(=O)N[C@@H]([C@@H](C)O)C(=O)N[C@@H](C)C(=O)N[C@@H]([C@@H](C)O)C(=O)N1)[C@@H](C)O)C(=O)N[C@@H](CC(C)C)C(=O)N1CCC[C@H]1C(=O)N1CCC[C@H]1C(=O)N[C@H](C(=O)N[C@@H](CC(N)=O)C(=O)N[C@H](C(=O)NCC(=O)N[C@@H](CO)C(=O)N[C@@H](CC(N)=O)C(=O)N[C@H](C(=O)N[C@@H](Cc1ccc(O)cc1)C(N)=O)[C@@H](C)O)C(C)C)[C@@H](C)O [Example 63, N-alpha-[(S)-4-Carboxy-4-(19-carboxynonadecanoylamino)butyryl]-GluHis-His-[Arg1,His17,Gln21]-pramlintide] ({C20 diacid-γGlu}-EHHRCNTATCATQRLANFLHHSSQNFGPILPPTNVGSNTY-NH2; disulfide 5-10) | 0.1
3 | CC[C@H](C)[C@H](NC(=O)[C@@H]1CCCN1C(=O)CNC(=O)[C@H](Cc1ccccc1)NC(=O)[C@H](CC(N)=O)NC(=O)[C@H](CC(N)=O)NC(=O)[C@H](CO)NC(=O)[C@H](CO)NC(=O)[C@H](Cc1c[nH]cn1)NC(=O)[C@H](Cc1c[nH]cn1)NC(=O)[C@H](CC(C)C)NC(=O)[C@H](Cc1ccccc1)NC(=O)[C@H](CC(N)=O)NC(=O)[C@H](C)NC(=O)[C@H](CC(C)C)NC(=O)[C@H](CCCNC(=N)N)NC(=O)[C@H](CCC(N)=O)NC(=O)[C@@H](NC(=O)[C@H](C)NC(=O)[C@@H]1CSSC[C@H](NC(=O)CCCNC(=O)CCCCCCCCCCCCCCCCCCC(=O)O)C(=O)N[C@@H](CC(N)=O)C(=O)N[C@@H]([C@@H](C)O)C(=O)N[C@@H](C)C(=O)N[C@@H]([C@@H](C)O)C(=O)N1)[C@@H](C)O)C(=O)N[C@@H](CC(C)C)C(=O)N1CCC[C@H]1C(=O)N1CCC[C@H]1C(=O)N[C@H](C(=O)N[C@@H](CC(N)=O)C(=O)N[C@H](C(=O)NCC(=O)N[C@@H](CO)C(=O)N[C@@H](CC(N)=O)C(=O)N[C@H](C(=O)N[C@@H](Cc1ccc(O)cc1)C(N)=O)[C@@H](C)O)C(C)C)[C@@H](C)O [Example 30, N-alpha-[4-(19-Carboxynonadecanoylamino)butyryl]-[His17]-pramlintide (2-37)] ({C20 diacid-GABA}-CNTATCATQRLANFLHHSSNNFGPILPPTNVGSNTY-NH2; disulfide 1-6) | 0.06

The remaining molecules from weak to strong by EC50, led by results:

Row | EC50 [nM] | SMILES
4 | 0.06 | CC(C)C[C@H](NC(=O)[C@H](CCCNC(=N)N)NC(=O)[C@H](CCC(N)=O)NC(=O)[C@@H](NC(=O)[C@H](C)NC(=O)[C@@H]1CSSC[C@H](NC(=O)[C@H](CCC(=O)O)NC(=O)[C@H](CCCNC(=N)N)NC(=O)[C@H](CCC(=O)O)NC(=O)CC[C@H](NC(=O)CCCCCCCCCCCCCCCCCCC(=O)O)C(=O)O)C(=O)N[C@@H](CC(N)=O)C(=O)N[C@@H]([C@@H](C)O)C(=O)N[C@@H](C)C(=O)N[C@@H]([C@@H](C)O)C(=O)N1)[C@@H](C)O)C(=O)N[C@@H](C)C(=O)N[C@@H](CC(=O)O)C(=O)N[C@@H](Cc1ccccc1)C(=O)N[C@@H](CC(C)C)C(=O)N[C@@H](Cc1c[nH]cn1)C(=O)N[C@@H](Cc1c[nH]cn1)C(=O)N[C@@H](CO)C(=O)N[C@@H](CO)C(=O)N[C@@H](CCC(N)=O)C(=O)N[C@@H](CC(N)=O)C(=O)N[C@@H](Cc1ccccc1)C(=O)NCC(=O)N[C@@H](C)C(=O)N1CCC[C@H]1C(=O)N[C@@H](CC(C)C)C(=O)N[C@@H](CO)C(=O)N[C@@H](CO)C(=O)N[C@H](C(=O)N[C@@H](CC(N)=O)C(=O)N[C@H](C(=O)NCC(=O)N[C@@H](CO)C(=O)N[C@@H](CC(N)=O)C(=O)N[C@H](C(=O)N[C@@H](Cc1ccc(O)cc1)C(N)=O)[C@@H](C)O)C(C)C)[C@@H](C)O [Example 48, N-alpha-[(S)-4-Carboxy-4-(19-carboxynonadecanoylamino)butyryl]-Glu-Arg-[Glu1,Asp14,His17,Gln21,Ala25,Pro26,Ser28,Ser29]-pramlintide] ({C20 diacid-γGlu}-ERECNTATCATQRLADFLHHSSQNFGAPLSSTNVGSNTY-NH2; disulfide 4-9)
5 | 0.04 | CC[C@H](C)[C@H](NC(=O)[C@@H]1CCCN1C(=O)CNC(=O)[C@H](Cc1ccccc1)NC(=O)[C@H](CC(N)=O)NC(=O)[C@H](CC(N)=O)NC(=O)[C@H](CO)NC(=O)[C@H](CO)NC(=O)[C@H](Cc1c[nH]cn1)NC(=O)[C@H](Cc1c[nH]cn1)NC(=O)[C@H](CC(C)C)NC(=O)[C@H](Cc1ccccc1)NC(=O)[C@H](CC(N)=O)NC(=O)[C@H](C)NC(=O)[C@H](CC(C)C)NC(=O)[C@H](CCCNC(=N)N)NC(=O)[C@H](CCC(N)=O)NC(=O)[C@@H](NC(=O)[C@H](C)NC(=O)[C@@H]1CSSC[C@H](NC(=O)COCCOCCNC(=O)COCCOCCNC(=O)CC[C@H](NC(=O)CCCCCCCCCCCCCCCCC(=O)O)C(=O)O)C(=O)N[C@@H](CC(N)=O)C(=O)N[C@@H]([C@@H](C)O)C(=O)N[C@@H](C)C(=O)N[C@@H]([C@@H](C)O)C(=O)N1)[C@@H](C)O)C(=O)N[C@@H](CC(C)C)C(=O)N1CCC[C@H]1C(=O)N1CCC[C@H]1C(=O)N[C@H](C(=O)N[C@@H](CC(N)=O)C(=O)N[C@H](C(=O)NCC(=O)N[C@@H](CO)C(=O)N[C@@H](CC(N)=O)C(=O)N[C@H](C(=O)N[C@@H](Cc1ccc(O)cc1)C(N)=O)[C@@H](C)O)C(C)C)[C@@H](C)O [Example 62, N-alpha-[2-(2-{2-[2-(2-{2-[(S)-4-Carboxy-4-(17-carboxyheptadecanoylamino)butyrylamino]ethoxy}ethoxy)acetylamino]ethoxy}ethoxy)acetyl][His17]-pramlintide (2-37)] ({C18 diacid-γGlu-AEEA-AEEA}-CNTATCATQRLANFLHHSSNNFGPILPPTNVGSNTY-NH2; disulfide 1-6)
